Measured values from PMC13198257, “An aerosolized dual-action autotaxin inhibitor-PPARγ agonist for the treatment of pulmonary fibrosis” (Cell Reports Medicine, 2026).

Test system: lung gene expression
Assay: RNA sequencing of lung tissue (BLM/EL244 vs BLM)
Format: in vivo, mouse
Description: RNA quality was assessed using an Agilent TapeStation 4150 with the High Sensitivity […] ScreenTape (Agilent), according to the manufacturer’s protocols. For library preparation, the QuantSeq 3’mRNA-Seq Library Prep Kit (Lexogen) was used according to manufacturer’s instructions. Briefly, 500 ng of RNA from each sample was used for first-strand synthesis, followed by RNA template removal, and second-strand synthesis initiated by random primers. In-line barcodes were introduced at this step, and this was followed by magnetic bead-based purification. The resulting libraries were amplified for 15 cycles and re-purified, with quantity and quality assessed on a Qubit 4 Fluorometer with the Invitrogen Qubit dsDNA HS Assay and an Agilent Tapestation 4150 with the High Sensitivity D1000 assay kit, respectively. The quantified libraries were pooled equimolarly; 50ng of total library mix was used for Adapter Conversion PCR Amplification using the Universal Library Conversion Kit (App-A), Version: V1.0 (MGI Tech Co., Ltd.), according to the manufacturer’s instructions.
The quantity and quality of the purified adapter conversion PCR (AC-PCR) product were evaluated on a Qubit 4 Fluorometer with the Invitrogen Qubit dsDNA HS Assay and on an Agilent Tapestation 4150 with the High Sensitivity D1000 assay kit, respectively. This was followed by DNA denaturation, Single-Strand Circularisation, Enzymatic Digestion, Enzymatic Digestion Product Cleanup and Quality Control steps on 1 pmol of AC-PCR product, according to the Universal Library Conversion Kit (App-A) User Manual (Version: A3).
Finally, 60 fmol of ssCirDNA were used for DNB preparation and sequencing on a DNBSEQ-G400 platform at the BSRC Alexander Fleming Genomics Facility, using a G400 App-A FCS SE100 High-throughput Sequencing Set (MGI Tech Co., Ltd.), according to the manufacturer’s instructions.
Alignment of the FASTQ files was performed against the mouse genome build mm10 using a custom Bash script.[143] Read counting on the 3′ UTRs and differential expression analysis were conducted using the metaseqR2 bioconductor package.[144] Genes corresponding to the following biotypes were excluded: polymorphic_pseudogene, processed_transcript, pseudogene, IG_V_pseudogene, misc_RNA, IG_C_gene, IG_J_gene, IG_D_gene, IG_LV_gene, TR_V_gene, TR_V_pseudogene, TEC, and processed_pseudogene. Gene counts were normalized with DESEQ[145] through metaseqR2. Genes with more than 10 counts in at least 50% of the samples were kept for further processing. For differential expression analysis, the PANDORA algorithm[146] was used to estimate a meta p-value integrating the results from the DESEQ, DESEQ2,[147] edgeR,[148] limma,[149] NBPSeq,[150] and NOISeq[151] algorithms. All additional parameters were set to default values.
Pathway enrichment analysis was performed for the Gene Ontology Biological process (BP) and Molecular Function (MF) terms through GeneCodis 4.[152] The volcano plots, scatterplots, Venn diagrams, and dot plots were generated using the ggplot2 Bioconductor package.

[1] = lung tissue of BLM-treated mice, BLM/EL244 vs BLM

## O=C1NC(=O)C(Cc2ccc(OCCC3CCN(C(=O)OCc4cc(Cl)cc(Cl)c4)CC3)cc2)S1 (stereo not shown) [EL244, 3,5-dichlorobenzyl 4-(2-(4-((2,4-dioxothiazolidin-5-yl)methyl)phenoxy)ethyl)piperidine-1-carboxylate]
DEG Rora, nFC: normalised fold change
  Rora log2 nFC BLM/EL244 vs BLM: 0.80
DEG Rrm2
  log2 nFC BLM/EL244 vs BLM: -2.56
DEG Ryr2, nFC: normalised fold change
  Ryr2 log2 nFC BLM/EL244 vs BLM: 2.14
DEG S1pr4, nFC: normalised fold change
  S1pr4 log2 nFC BLM/EL244 vs BLM: 0.94
DEG S1pr5, nFC: normalised fold change
  S1pr5 log2 nFC BLM/EL244 vs BLM: 1.64
DEG S100a4
  log2 nFC BLM/EL244 vs BLM: -1.26
DEG S100a8, nFC: normalised fold change
  S100a8 log2 nFC BLM/EL244 vs BLM: 1.52
DEG S100a9, nFC: normalised fold change
  S100a9 log2 nFC BLM/EL244 vs BLM: 2.11
DEG S100a14
  log2 nFC BLM/EL244 vs BLM: -1.28
DEG Scn3a, nFC: normalised fold change
  Scn3a log2 nFC BLM/EL244 vs BLM: 0.75
DEG Scube2, nFC: normalised fold change
  Scube2 log2 nFC BLM/EL244 vs BLM: 0.74
DEG Sec14l3, nFC: normalised fold change
  Sec14l3 log2 nFC BLM/EL244 vs BLM: 0.69
DEG Sec14l4, nFC: normalised fold change
  Sec14l4 log2 nFC BLM/EL244 vs BLM: 0.77
DEG Sell, nFC: normalised fold change
  Sell log2 nFC BLM/EL244 vs BLM: 1.03
DEG Sema3g, nFC: normalised fold change
  Sema3g log2 nFC BLM/EL244 vs BLM: 0.78
DEG Serpina3g
  log2 nFC BLM/EL244 vs BLM: -1.31
DEG Sftpa1, nFC: normalised fold change
  Sftpa1 log2 nFC BLM/EL244 vs BLM: 0.70
DEG Sgip1, nFC: normalised fold change
  Sgip1 log2 nFC BLM/EL244 vs BLM: 0.90
DEG Sgms1, nFC: normalised fold change
  Sgms1 log2 nFC BLM/EL244 vs BLM: 0.71
DEG Ska1
  log2 nFC BLM/EL244 vs BLM: -2.52
DEG Slamf8
  log2 nFC BLM/EL244 vs BLM: -1.24
DEG Slc2a4rg-ps, nFC: normalised fold change
  Slc2a4rg-ps log2 nFC BLM/EL244 vs BLM: 0.85
DEG Slc7a10, nFC: normalised fold change
  Slc7a10 log2 nFC BLM/EL244 vs BLM: 0.97
DEG Slc7a11
  log2 nFC BLM/EL244 vs BLM: -1.50
DEG Slc16a11, nFC: normalised fold change
  Slc16a11 log2 nFC BLM/EL244 vs BLM: 0.79
DEG Slc38a4, nFC: normalised fold change
  Slc38a4 log2 nFC BLM/EL244 vs BLM: 1.12
DEG Slc43a3, nFC: normalised fold change
  Slc43a3 log2 nFC BLM/EL244 vs BLM: 0.73
DEG Sln, nFC: normalised fold change
  Sln log2 nFC BLM/EL244 vs BLM: 2.01
DEG Smad6, nFC: normalised fold change
  Smad6 log2 nFC BLM/EL244 vs BLM: 1.18
DEG Smpx, nFC: normalised fold change
  Smpx log2 nFC BLM/EL244 vs BLM: 2.34
DEG Smyd1, nFC: normalised fold change
  Smyd1 log2 nFC BLM/EL244 vs BLM: 1.73
DEG Snhg11, nFC: normalised fold change
  Snhg11 log2 nFC BLM/EL244 vs BLM: 1.40
DEG Sntb1, nFC: normalised fold change
  Sntb1 log2 nFC BLM/EL244 vs BLM: 0.72
DEG Snx21, nFC: normalised fold change
  Snx21 log2 nFC BLM/EL244 vs BLM: 1.15
DEG Sorbs1, nFC: normalised fold change
  Sorbs1 log2 nFC BLM/EL244 vs BLM: 0.70
DEG Sorbs3, nFC: normalised fold change
  Sorbs3 log2 nFC BLM/EL244 vs BLM: 0.80
DEG Sox9
  log2 nFC BLM/EL244 vs BLM: -1.42
DEG Spp1
  log2 nFC BLM/EL244 vs BLM: -1.50
DEG Srcin1, nFC: normalised fold change
  Srcin1 log2 nFC BLM/EL244 vs BLM: 0.91
DEG Syne1, nFC: normalised fold change
  Syne1 log2 nFC BLM/EL244 vs BLM: 0.70
DEG Synm, nFC: normalised fold change
  Synm log2 nFC BLM/EL244 vs BLM: 0.84
DEG Tacc3
  log2 nFC BLM/EL244 vs BLM: -1.27
DEG Tbata, nFC: normalised fold change
  Tbata log2 nFC BLM/EL244 vs BLM: 1.72
DEG Tbkbp1, nFC: normalised fold change
  Tbkbp1 log2 nFC BLM/EL244 vs BLM: 0.71
DEG Tcap, nFC: normalised fold change
  Tcap log2 nFC BLM/EL244 vs BLM: 1.73
DEG Tcf19
  log2 nFC BLM/EL244 vs BLM: -1.42
DEG Tex11, nFC: normalised fold change
  Tex11 log2 nFC BLM/EL244 vs BLM: 1.83
DEG Tgfbr3, nFC: normalised fold change
  Tgfbr3 log2 nFC BLM/EL244 vs BLM: 0.83
DEG Tmem100, nFC: normalised fold change
  Tmem100 log2 nFC BLM/EL244 vs BLM: 0.82
DEG Tmem182, nFC: normalised fold change
  Tmem182 log2 nFC BLM/EL244 vs BLM: 2.26
DEG Tmem132d, nFC: normalised fold change
  Tmem132d log2 nFC BLM/EL244 vs BLM: 2.38
DEG Tnip3
  log2 nFC BLM/EL244 vs BLM: -1.47
DEG Tnnc1, nFC: normalised fold change
  Tnnc1 log2 nFC BLM/EL244 vs BLM: 2.18
DEG Tnni3, nFC: normalised fold change
  Tnni3 log2 nFC BLM/EL244 vs BLM: 2.31
DEG Tnnt2, nFC: normalised fold change
  Tnnt2 log2 nFC BLM/EL244 vs BLM: 1.77
DEG Tns2, nFC: normalised fold change
  Tns2 log2 nFC BLM/EL244 vs BLM: 0.77
DEG Tppp3, nFC: normalised fold change
  Tppp3 log2 nFC BLM/EL244 vs BLM: 0.77
DEG Trem2
  log2 nFC BLM/EL244 vs BLM: -1.42
DEG Trip13
  log2 nFC BLM/EL244 vs BLM: -1.42
DEG Ttn, nFC: normalised fold change
  Ttn log2 nFC BLM/EL244 vs BLM: 2.53
DEG Unc45b, nFC: normalised fold change
  Unc45b log2 nFC BLM/EL244 vs BLM: 0.77
DEG Upk3b, nFC: normalised fold change
  Upk3b log2 nFC BLM/EL244 vs BLM: 1.53
DEG Vpreb3, nFC: normalised fold change
  Vpreb3 log2 nFC BLM/EL244 vs BLM: 0.71
DEG Vwa3b, nFC: normalised fold change
  Vwa3b log2 nFC BLM/EL244 vs BLM: 0.98
DEG Wfdc17
  log2 nFC BLM/EL244 vs BLM: -1.30
DEG Xndc1, nFC: normalised fold change
  Xndc1 log2 nFC BLM/EL244 vs BLM: 1.14
DEG Zmynd10, nFC: normalised fold change
  Zmynd10 log2 nFC BLM/EL244 vs BLM: 1.28
DEG Zranb3
  log2 nFC BLM/EL244 vs BLM: -1.43
DEG Zwilch
  log2 nFC BLM/EL244 vs BLM: -1.54
[1]
  1810010H24Rik log2 nFC: 0.90
  1810010H24Rik nFC: 1.87
  Abca8a log2 nFC: 0.75
  Abca8a nFC: 1.68
  Abi3bp log2 nFC: 1.00
  Abi3bp nFC: 2.00
  Acbd4 log2 nFC: 0.86
  Acbd4 nFC: 1.81
  Adgrf5 log2 nFC: 0.68
  Adgrf5 nFC: 1.60
  Adh7 log2 nFC: 1.02
  Adh7 nFC: 2.02
  Aldh1a1 log2 nFC: 0.78
  Aldh1a1 nFC: 1.71
  Ankrd44 log2 nFC: 0.84
  Ankrd44 nFC: 1.79
  Aox3 log2 nFC: 1.07
  Aox3 nFC: 2.09
  Ar log2 nFC: 1.04
  Ar nFC: 2.06
  Arhgef28 log2 nFC: 0.76
  Arhgef28 nFC: 1.70
  Arhgef38 log2 nFC: 0.87
  Arhgef38 nFC: 1.83
  Arl4a log2 nFC: 0.70
  Arl4a nFC: 1.63
  Atp2a3 log2 nFC: 0.83
  Atp2a3 nFC: 1.77
  Atp6v1c2 log2 nFC: 1.03
  Atp6v1c2 nFC: 2.04
  Atp7b log2 nFC: 0.95
  Atp7b nFC: 1.93
  Bcar3 log2 nFC: 0.82
  Bcar3 nFC: 1.76
  Bmp6 log2 nFC: 1.07
  Bmp6 nFC: 2.10
  Cbr2 log2 nFC: 0.91
  Cbr2 nFC: 1.88
  Ccdc153 log2 nFC: 0.79
  Ccdc153 nFC: 1.73
  Ccdc171 log2 nFC: 1.04
  Ccdc171 nFC: 2.06
  Ccl5 log2 nFC: 0.76
  Ccl5 nFC: 1.69
  Cep85l log2 nFC: 1.02
  Cep85l nFC: 2.03
